Here are results for 1 compound from patent US20100331330A1, “METHODS AND COMPOSITIONS FOR TREATING ISCHEMIC STROKE” (priority 2006, published 2010).

The test system of data set [1] is rats subjected to middle cerebral artery occlusion (MCAO). The settings on record: for infarction volume relative to vehicle injected rats: assayed 24 h after MCAO. An excerpt:
Male Wistar rats, 250-350 g, were obtained from Charles River (Wilmington, Mass.). Animals were housed and cared for in the Animal Resource Center and allowed free access to food and water before and after surgery. All procedures were approved by the Institutional Animal Care and Use Committee of Case Western Reserve University.
A 4.0 nylon suture with a flame rounded tip was advanced through the internal carotid artery to occlude the MCA while cerebral blood flow was monitored using laser doppler (Perimed AB, Jarfalla, Sweden). At the time of reperfusion rats were again anesthetized and the suture removed with cerebral blood flow monitoring to ensure reperfusion. Arterial blood pressure, arterial blood gases and temperature were all monitored and controlled during the length of the procedure.
Control animals were injected with 0.1 ml DMSO.
Rats were euthanized by exposure to 5% halothane until breathing ceased. They then underwent intracardiac perfusion first with PBS and then with 4% paraformaldehyde. Brains were isolated and immersion fixed in 4% paraformaldehyde overnight. Tissue was cryoprotected in 30% sucrose in PBS. Twenty micron frozen sections were collected every […] beginning at the level of the forceps minor corpus callosum and extending through the hippocampus. Sections were stained with Thionin and the area of infarction measured using Bioquant computer software (R&M Biometrics, Nashville, Tenn.) by subtracting the uninfarcted tissue in the ischemic hemisphere from the volume of the contralateral hemisphere. This method corrects for post-ischemic edema.
Male Wistar rats, 250-350 g, were obtained from Charles River (Wilmington, Mass.). […] Animals were housed and cared for in the Animal Resource Center and allowed free access to food and water before and after surgery. […] The tail artery was exposed and cannulated to measure mean arterial blood pressure and to obtain blood for blood gas measurements during surgery. Animals in which normal temperature, blood pressure and gases could not be maintained were excluded from the study. MCAO was performed as previously described. Briefly, the bifurcation of the common carotid artery was exposed. The external carotid artery was isolated and a suture placed 0.5 cm from the bifurcation. Following electrocoagulation distal to the suture the external carotid was cut between the suture and the electrocoagulated segment. A suture was applied to the common carotid artery such that it could be removed later. A loop of suture was then placed under the internal carotid artery and the artery elevated to transiently occlude blood flow. A small nick was made in the wall of the external carotid artery. Through this nick a 22 mm length of 4.0 Ethicon suture, its tip rounded by heating near a flame, was gently threaded from the external to the internal carotid artery lumen to a distance of 18 mm from the bifurcation of the carotid. The thread was held in place with a suture around the stump of the external carotid artery and the suture around the internal carotid artery released. The catheter was removed from the tail artery and both incisions were closed. The rats were then allowed to recover from anesthesia. […] The neck incision was reopened and the 4.0 Ethicon suture removed. The suture that held it in place was tightened and the suture around the common carotid artery was removed. After confirmation of reperfusion by visual inspection, the incision was closed and the animal allowed to recover.
Twenty micron frozen sections of paraformaldehyde fixed brains were collected every 1000 μm beginning at the level of the forceps minor corpus callosum and extending through the hippocampus. The slides were stained with Thionin. The sections were then trans-illuminated and the image transmitted to a computer screen.

In another data set the test system is myeloperoxidase-IR cells. Put plainly: Quantification of myeloperoxidase-IR cells (leukocyte infiltration) after MCAO. The data set is classed as in vivo, rat.
For a further data set, the system named is ICAM. Kind of data set: ICAM immunohistochemistry of brain sections after MCAO. The data set is classed as in vivo, rat. To be noted: rosiglitazone 0.1 mg/kg or pioglitazone 1 mg/kg 24 h before and at time of MCAO; sacrificed 24 h later.
The next data set has as its system ICAM mRNA. Put plainly: ICAM mRNA by real time PCR after MCAO. The data set is classed as in vivo, rat. The settings on record: rosiglitazone 0.1 mg/kg or pioglitazone 1 mg/kg 24 h before and at time of 2 hour MCAO; sacrificed 24 h later. A general note: Real-time PCR tracks product formation cycle by cycle.
The next data set has as its system LPL mRNA. Kind of data set: Lipoprotein lipase (LPL) mRNA by real time PCR after MCAO. The data set is classed as in vivo, rat. To be noted: rosiglitazone 0.1 mg/kg, pioglitazone 1.0 mg/kg; 24 h before and at time of 2 hour MCAO; tissue 24 h later. The text has this:
At the time of sacrifice the animal was placed in an anesthesia chamber and exposed to 5% halothane, 30% oxygen, 65% nitrous oxide until it ceased breathing. The rat was the, processed for either histologic and immunocytochemical analysis or decapitated and the brain immediately dissected for mRNA isolation. Animals used for immunohistochemistry underwent intracardiac perfusion; the thoracic cavity was opened, a blunt needle placed through the left ventricle into the aorta and the right atrium cut. Animals were perfused through the heart, first with 0.1 M phosphate buffer and then with 4% paraformaldehyde (pH 7.4). The brain was removed from the rat and immersion fixed in 4% paraformaldehyde for an additional hour. Tissue was then transferred to 30% sucrose in phosphate buffer in order to cyroprotect it. Brains were mounted in OCT sectioning medium and frozen sections cut at either twenty microns (for infarct volume determination) or ten microns (for immunocytochemistry). Animals used in real time PCR experiments were decapitated after euthanasia and the brain quickly removed.
A 2 mm thick coronal slice of tissue through the area of maximal infarction was quickly homogenized in Trizol (Gibco BRL, Rockville, Md.). […] RNA was isolated using Life Technologies Protocol (Rockville, Md.), and cDNA synthesized from 1.5 μg of total RNA. […]

The conditions of data set [2]: two hour continuous monitoring; previously shown; cited from earlier work.
Data set [3] concerns rodent models of cerebral ischemia. The settings on record: cited from earlier work.
For a further data set, the system named is 3T3-L1 cells. To be noted: cited from earlier work.
Another data set has as its system dopaminergic cell death. To be noted: Parkinson's disease model; cited from earlier work.

Entries after “also recorded” stand apart in the source; their conditions may differ. Like-named read-outs stand apart in the source and are kept apart here.

Text for myeloperoxidase-IR cells: Frozen sections of the brains were cut coronally at ten microns. Sections were collected every 1000 mm beginning at the level of the forceps minor corpus callosum and extending through the hippocampus. Ten micron cryostat sections were labeled using either mouse anti-ICAM (Sertec, UK) or rabbit antimyeloperoxidase (Dacko) antibodies in 5% rat serum. Primary antibodies were visualized using either goat anti-mouse conjugated to Oregon Green or goat anti-rabbit conjugated to Oregon-Green (Molecular Probes, Eugene, Oreg.) in 5% rat serum. Adjacent sections were incubated without primary antisera to control for non-specific binding of the secondary antiserum. Sections were viewed using a fluorescent microscope and images acquired and stored using Spot Advanced imaging software (Spot Image Corporation, Chantilly, Va.). […]
Myeloperoxidase-IR cells were quantified from cryostat sections through the maximal area of infarction labeled with rabbit anti-myeloperoxidase antibody followed by anti-rabbit antibodies conjugated to Oregon-green. Digital photographs of high powered fields covering a representative section were analyzed in Adobe Photoshop by overlaying a grid and counting all myeloperoxidase-IR cells. The average number of myeloperoxidase-IR cells per high powered field (360 μm2) was calculated and plotted using data from at least three animals.

As for `CCc1ccc(CCOc2ccc(CC3SC(=O)NC3=O)cc2)nc1` (stereo not shown) [pioglitazone, 5-[4-[2-(5-ethylpyridin-2-yl)ethoxyl]benzyl]thiazolidine-2,4-dione], the “infarction volume relative to vehicle injected rats” value in data set [1] (0.5 mg/kg IP 24 h before and at time of 2 hour MCAO) is listed as “did not significantly reduce infarction volume”; in data set [1] (1 mg/kg IP 24 h before and at time of 2 hour MCAO), “significantly reduced infarction size”; in data set [1] (1 mg/kg IP 24 h before and at time of 2 hour MCAO, listed as Pioglitazone), “did significantly reduce infarction volume; also recorded: significantly reduced infarction volume”; in data set [1] (3.5 mg/kg IP 24 h before and at time of 2 hour MCAO) it was “did significantly reduce infarction volume”; in data set [1] (7 mg/kg IP 24 h before and at time of 2 hour MCAO), “protection was lost”. Besides, the “infarct volume compared to vehicle treated rats” value was “significantly reduce infarction volume; also recorded: significantly reduced” in data set [1] (1 mg/kg IP 1 hour after onset of 2 hour MCAO); “not when given three or six hours after MCAO; also recorded: no significant change in infarct volume” in data set [1] (1 mg/kg IP 6 hours after onset of 2 hour MCAO); “not when given three or six hours after MCAO; also recorded: infarction volumes which were similar to animals injected with vehicle; also recorded: no significant change in infarct volume; also recorded: infarction volumes similar to those previously seen in untreated and vehicle treated rats” in data set [1] (pioglitazone 1 mg/kg or rosiglitazone 0.1 mg/kg 3 hours after MCAO onset, reperfusion at 2 hours (before treatment)). Moreover, in data set [1] (1 mg/kg IP 24 h before and at time of MCAO, permanent occlusion, listed as Pioglitazone), the “infarction volume relative to vehicle treated rats” value is recorded as “no significant protection was evident”. For the same compound, the “optimal dose for neuroprotection” value in data set [1] (IP 24 h before and at time of 2 hour MCAO, infarct volume 24 h after MCAO) was 1 mg/kg. Also, the “infarction volume relative to rats reperfused at two hours” value in [1] (pioglitazone 1 mg/kg or rosiglitazone 0.1 mg/kg 3 hours after MCAO onset, reperfusion at 3 hours 15 minutes (after treatment)) is given as “neuroprotective when given up to three hours after MCAO, but only if reperfusion occurs after treatment; also recorded: significantly smaller infarctions volumes; also recorded: significantly reduced infarction volumes”. Also, the “myeloperoxidase-IR cells within the ischemic hemisphere” value in the data set with myeloperoxidase-IR cells (reperfused at 2 h and treated at 3 h, relative to treated at 3 h and reperfused at 3.25 h) was “significantly increased numbers of myeloperoxidase-IR cells”. Also, the “number of myeloperoxidase-IR cells per high powered field” value in the data set with myeloperoxidase-IR cells (rosiglitazone 0.1 mg/kg or pioglitazone 1 mg/kg at 3 h, reperfusion delayed to 3.25 h, relative to reperfusion at 2 h) is given as “significantly reduced”. Besides, the “ICAM-IR in brain sections compared with vehicle treated rats” value with ICAM is given as “less is seen”. The “ICAM mRNA compared with vehicle treated rats” value with ICAM mRNA is “significant reduction in ICAM mRNA”. In the data set on LPL mRNA, the “increase in LPL mRNA levels within the ischemic hemisphere” value came to 307%. In [2], the cerebral blood flow result is listed as “no significant change in cerebral blood flow”. Besides, the “neuroprotection in rodent models of cerebral ischemia” value in data set [3] (in vivo) is listed as “effective neuroprotective agents”. Also, the entries for the “efficacy of oral pretreatment” value in data set [3] (permanent ischemia) and in data set [3] (transient ischemia) were “but not permanent ischemia” and “effective in transient”, respectively. Moreover, the “effect on PPARγ-corepressor complex” value in the data set on 3T3-L1 cells was “dissociation of the PPARγ-corepressor complex and transcriptional activation”. For the same compound, the dopaminergic cell death result in the data set on dopaminergic cell death is on record as “attenuates dopaminergic cell death”.
